# Numbered stars: 1 amine (or outer) side, 2 acyl side, 3 side chain; on linkers, the order of the positions; unused ones are H or OH. Square brackets hold non-standard residues; d marks the D form. Peptide text beside a SMILES is read from it. * marks the point of attachment. ξ: configuration not given here. X1 = O=C(O)CCCc1cc2c(O[C@@H]3O[C@H](CO)[C@H](O)[C@H](O)[C@H]3O)ccc(COC(=O)*)c2o1; X3 = O=C(O)c1cc2c(O[C@@H]3O[C@H](CO)[C@H](O)[C@H](O)[C@H]3O)ccc(COC(=O)*)c2[se]1; X2 = O=C(O)CCc1cc2c(O[C@@H]3O[C@H](CO)[C@H](O)[C@H](O)[C@H]3O)ccc(COC(=O)*)c2s1; X4 = O=C(O)c1cc2c(O[C@@H]3O[C@H](CO)[C@H](O)[C@H](O)[C@H]3O)ccc(COC(=O)*)c2o1; Dil(5ξ) = CCC(C)[C@@H]([C@@H](CC(=O)[*:2])OC)N(C)[*:1]; Dolaproine = CO[C@@H]([C@@H]1CCCN1)[C@@H](C)C(=O)O; NMeV = CN[C@H](C(=O)O)C(C)C; ξF = NC(Cc1ccccc1)C(=O)O
# Assays:
# [1] = Chemical stability in PBS buffer solution (pH 7.4); assay type: physicochemical; settings: 37° C., read-out: Chemical stability t1/2
# Method: The compounds of the present invention (A-15, A-16, A-19, A-21 to A-25, A-28, A-29, A-36 and A-69) were each dissolved in DMSO to a concentration of 10 mM and then mixed with a PBS buffer solution (pH 7.4) to prepare as a solution having a concentration of 500 μM (5% DMSO). MPS, used as a standard material, was also prepared as a solution having a concentration of 500 μM in a PBS buffer solution. 420 μL of a PBS buffer solution and […] of each of 500 μM compounds of the present invention and MPS were mixed to prepare a total of 700 μL of reaction solution. The reaction of the mixed solution was initiated in a constant temperature incubator at 37° C. The reaction solution was aliquoted in an amount of 70 μL at 0 minutes before the reaction and at certain times after the reaction, and the remaining compounds of the present invention or MPS or the liberated MMAF or MMAE were quantitatively analyzed using the HPLC method. […] In addition, the remaining amount of Compound A-69 in a PBS buffer solution (pH 7.4) according to the incubation time is shown in FIG. 5.
# [2] = Mouse plasma stability (Method 1); assay type: in vitro ADME; settings: Method 1 (mouse plasma), 37° C.; read-out: Plasma stability t1/2
# Method: Method 1: Mouse Plasma Stability
# (§1) The compounds of the present invention (A-16, A-22, A-25, A-36, A-69) and MPS, used as a standard material, were each dissolved in DMSO and a PBS buffer solution to a concentration of 30 mM, and then mixed in mouse plasma (Biochemed, 029-APSC-PMG) to a final concentration of 300 μM (final 1.0% DMSO) and 600 μM of the compounds and MPS, respectively. The reaction of the mixed solution in plasma was initiated in a constant temperature incubator at 37° C. Before the reaction and on certain days after the reaction, the above samples were aliquoted in an amount of 100 μL, and 200 μL of acetonitrile (ACN, Sigma, SA-271004-1L) was added to terminate the reaction, mixed, and then vortexed for about 1 minute, and then centrifuged (Beckman, B30150) at 4° C. for 15 minutes at 14,000 rpm to precipitate plasma proteins. Each supernatant obtained by centrifugation was collected and quantitatively analyzed using the HPLC method.
# (§2) The results of measuring the plasma half-life of the compounds of the present invention using Methods 1 to 4 above are shown in Table 3.
# [3] = Human plasma stability (Method 2); assay type: in vitro ADME; settings: Method 2 (human plasma), 37° C.; read-out: Plasma stability t1/2
# Method: Method 2: Human Plasma Stability
# as §1, with “(A-19,” for “(A-16,”, “human” for “mouse”, “752PR-SC-PMG)” for “029-APSC-PMG)”, “ACN” for “acetonitrile (ACN, Sigma, SA-271004-1L)”, “centrifuged” for “centrifuged (Beckman, B30150)”
# as §2
# [4] = Rat plasma stability (Method 3); assay type: in vitro ADME; settings: Method 3 (rat plasma), 37° C.; read-out: Plasma stability t1/2
# Method: Method 3: Rat Plasma Stability
# as §1, with “(A-22,” for “(A-16, A-22, A-25, A-36,”, “rat” for “mouse”, “031-APSC-PMG)” for “029-APSC-PMG)”, “ACN” for “acetonitrile (ACN, Sigma, SA-271004-1L)”, “centrifuged” for “centrifuged (Beckman, B30150)”
# as §2
# [5] = Beagle dog plasma stability (Method 4); assay type: in vitro ADME; settings: Method 4 (beagle dog plasma), 37° C.; read-out: Plasma stability t1/2
# Method: Method 4: Beagle Dog Plasma Stability
# as §1, with “(A-22,” for “(A-16, A-22, A-25, A-36,”, “beagle dog” for “mouse”, “014-APSC-PMG)” for “029-APSC-PMG)”, “ACN” for “acetonitrile (ACN, Sigma, SA-271004-1L)”, “centrifuged” for “centrifuged (Beckman, B30150)”
# as §2
SMILES,half-life at 100 µM [1] [h],half-life at 300 µM [2] [h],half-life at 300 µM [3] [h],half-life at 300 µM [4] [h],half-life at 300 µM [5] [h]
CCC(C)[C@@H]([C@@H](CC(=O)N1CCC[C@H]1[C@H](OC)[C@@H](C)C(=O)NC(Cc1ccccc1)C(=O)O)OC)N(C)C(=O)[C@@H](NC(=O)[C@H](C(C)C)N(C)C(=O)OCc1ccc(O[C@@H]2O[C@H](CO)[C@H](O)[C@H](O)[C@H]2O)c2cc(CCC(=O)NCCOCCOCCOCCN=[N+]=[N-])sc12)C(C)C (some centres unmarked) [Compound A-15],> 168,–,–,–,–
CCC(C)[C@@H]([C@@H](CC(=O)N1CCC[C@H]1[C@H](OC)[C@@H](C)C(=O)NC(Cc1ccccc1)C(=O)O)OC)N(C)C(=O)[C@@H](NC(=O)[C@H](C(C)C)N(C)C(=O)OCc1ccc(O[C@@H]2O[C@H](CO)[C@H](O)[C@H](O)[C@H]2O)c2cc(CCC(=O)O)sc12)C(C)C (some centres unmarked) [Compound A-16] (X2-[NMeV]V[Dil(5ξ)][Dolaproine][ξF]-OH),> 168,> 168,–,–,–
CCC(C)[C@@H]([C@@H](CC(=O)N1CCC[C@H]1[C@H](OC)[C@@H](C)C(=O)NC(Cc1ccccc1)C(=O)O)OC)N(C)C(=O)[C@@H](NC(=O)[C@H](C(C)C)N(C)C(=O)OCc1ccc(O[C@@H]2O[C@H](CO)[C@H](O)[C@H](O)[C@H]2O)c2cc(Cn3cc(COCCOCCOCCOC)nn3)sc12)C(C)C (some centres unmarked) [Compound A-19],> 168,–,> 168,–,–
C#CCOCCOCCOCCOCC(=O)NCc1cc2c(O[C@@H]3O[C@H](CO)[C@H](O)[C@H](O)[C@H]3O)ccc(COC(=O)N(C)[C@H](C(=O)N[C@H](C(=O)N(C)[C@@H](C(C)CC)[C@@H](CC(=O)N3CCC[C@H]3[C@H](OC)[C@@H](C)C(=O)NC(Cc3ccccc3)C(=O)O)OC)C(C)C)C(C)C)c2s1 (some centres unmarked) [Compound A-21],> 168,–,–,–,–
CCC(C)[C@@H]([C@@H](CC(=O)N1CCC[C@H]1[C@H](OC)[C@@H](C)C(=O)NC(Cc1ccccc1)C(=O)O)OC)N(C)C(=O)[C@@H](NC(=O)[C@H](C(C)C)N(C)C(=O)OCc1ccc(O[C@@H]2O[C@H](CO)[C@H](O)[C@H](O)[C@H]2O)c2cc(CCCC(=O)O)oc12)C(C)C (some centres unmarked) [Compound A-22] (X1-[NMeV]V[Dil(5ξ)][Dolaproine][ξF]-OH),> 168,> 168,> 168,> 168,> 168
CCC(C)[C@@H]([C@@H](CC(=O)N1CCC[C@H]1[C@H](OC)[C@@H](C)C(=O)NC(Cc1ccccc1)C(=O)O)OC)N(C)C(=O)[C@@H](NC(=O)[C@H](C(C)C)N(C)C(=O)OCc1ccc(O[C@@H]2O[C@H](CO)[C@H](O)[C@H](O)[C@H]2O)c2cc(CCCC(=O)NCCOCCOCCOCCN=[N+]=[N-])oc12)C(C)C (some centres unmarked) [Compound A-23],> 168,–,–,–,–
CCC(C)[C@@H]([C@@H](CC(=O)N1CCC[C@H]1[C@H](OC)[C@@H](C)C(=O)NC(Cc1ccccc1)C(=O)O)OC)N(C)C(=O)[C@@H](NC(=O)[C@H](C(C)C)N(C)C(=O)OCc1ccc(O[C@@H]2O[C@H](CO)[C@H](O)[C@H](O)[C@H]2O)c2cc(C(=O)O)oc12)C(C)C (some centres unmarked) [Compound A-24] (X4-[NMeV]V[Dil(5ξ)][Dolaproine][ξF]-OH),> 168,–,–,–,–
CC[C@H](C)[C@@H]([C@@H](CC(=O)N1CCC[C@H]1[C@H](OC)[C@@H](C)C(=O)N[C@H](C)[C@@H](O)c1ccccc1)OC)N(C)C(=O)[C@@H](NC(=O)[C@H](C(C)C)N(C)C(=O)OCc1ccc(O[C@@H]2O[C@H](CO)[C@H](O)[C@H](O)[C@H]2O)c2cc(CCC(=O)NCCOCCOCCOCCN=[N+]=[N-])oc12)C(C)C [Compound A-25],> 168,> 168,> 168,–,–
C#CCOCCOCCOCCOCC(=O)NCc1cc2c(O[C@@H]3O[C@H](CO)[C@H](O)[C@H](O)[C@H]3O)ccc(COC(=O)N(C)[C@H](C(=O)N[C@H](C(=O)N(C)[C@@H](C(C)CC)[C@@H](CC(=O)N3CCC[C@H]3[C@H](OC)[C@@H](C)C(=O)NC(Cc3ccccc3)C(=O)O)OC)C(C)C)C(C)C)c2o1 (some centres unmarked) [Compound A-28],> 168,–,–,–,–
CCC(C)[C@@H]([C@@H](CC(=O)N1CCC[C@H]1[C@H](OC)[C@@H](C)C(=O)NC(Cc1ccccc1)C(=O)O)OC)N(C)C(=O)[C@@H](NC(=O)[C@H](C(C)C)N(C)C(=O)OCc1ccc(O[C@@H]2O[C@H](CO)[C@H](O)[C@H](O)[C@H]2O)c2cc(C(=O)O)[se]c12)C(C)C (some centres unmarked) [Compound A-29] (X3-[NMeV]V[Dil(5ξ)][Dolaproine][ξF]-OH),> 168,–,–,–,–
CC[C@H](C)[C@@H]([C@@H](CC(=O)N1CCC[C@H]1[C@H](OC)[C@@H](C)C(=O)N[C@H](C)[C@@H](O)c1ccccc1)OC)N(C)C(=O)[C@@H](NC(=O)[C@H](C(C)C)N(C)C(=O)OCc1ccc(O[C@@H]2O[C@H](C(=O)O)[C@@H](O)[C@H](O)[C@H]2O)c2cc(Cn3cc(COCCOCCOCCOC)nn3)[se]c12)C(C)C [Compound A-69],> 168,> 168,> 168,> 168,> 168
